Laboratory results published in PubChem BioAssay (NCI).
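1) Cells in 96-well plates. 2) Compound, 48 h, 5 concentrations. 3) Linear interpolation between surrounding doses. 4) Unreached endpoint = highest concentration. TGI denotes the concentration required for complete inhibition of growth.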

What was measured:
Experiment in all cases: NCI tumour cell line growth inhibition, 48 h
786-0 renal = tested on: 786-0 renal
A498 renal = tested on: A498 renal
A549 NSCLC = tested on: A549 NSCLC
ACHN renal = tested on: ACHN renal
CAKI-1 renal = tested on: CAKI-1 renal
CCRF-CEM leukemia = tested on: CCRF-CEM leukemia
COLO 205 colon = tested on: COLO 205 colon
DLD-1 colon = tested on: DLD-1 colon
DMS 114 small cell lung = tested on: DMS 114 small cell lung
DMS 273 small cell lung = tested on: DMS 273 small cell lung
EKVX NSCLC = tested on: EKVX NSCLC
HCC-2998 colon = tested on: HCC-2998 colon
HCT-116 colon = tested on: HCT-116 colon
HCT-15 colon = tested on: HCT-15 colon
HL-60(TB) leukemia = tested on: HL-60(TB) leukemia
HOP-18 NSCLC = tested on: HOP-18 NSCLC
HOP-62 NSCLC = tested on: HOP-62 NSCLC
HT29 colon = tested on: HT29 colon
IGROV1 ovarian = tested on: IGROV1 ovarian
K-562 leukemia = tested on: K-562 leukemia
KM12 colon = tested on: KM12 colon
KM20L2 colon = tested on: KM20L2 colon
LOX IMVI melanoma = tested on: LOX IMVI melanoma
LXFL 529 NSCLC = tested on: LXFL 529 NSCLC
M14 melanoma = tested on: M14 melanoma
M19-MEL melanoma = tested on: M19-MEL melanoma
MALME-3M melanoma = tested on: MALME-3M melanoma
MOLT-4 leukemia = tested on: MOLT-4 leukemia
NCI-H23 lung = tested on: NCI-H23 lung
NCI-H460 lung = tested on: NCI-H460 lung
OVCAR-3 ovarian = tested on: OVCAR-3 ovarian
OVCAR-4 ovarian = tested on: OVCAR-4 ovarian
OVCAR-5 ovarian = tested on: OVCAR-5 ovarian
OVCAR-8 ovarian = tested on: OVCAR-8 ovarian
RPMI-8226 leukemia = tested on: RPMI-8226 leukemia
RXF 393 renal = tested on: RXF 393 renal
RXF-631 renal = tested on: RXF-631 renal
SF-268 CNS = tested on: SF-268 CNS
SF-295 CNS = tested on: SF-295 CNS
SF-539 CNS = tested on: SF-539 CNS
SK-MEL-2 melanoma = tested on: SK-MEL-2 melanoma
SK-MEL-28 melanoma = tested on: SK-MEL-28 melanoma
SK-MEL-5 melanoma = tested on: SK-MEL-5 melanoma
SK-OV-3 ovarian = tested on: SK-OV-3 ovarian
SN12C renal = tested on: SN12C renal
SNB-19 CNS = tested on: SNB-19 CNS
SNB-75 CNS = tested on: SNB-75 CNS
SNB-78 CNS = tested on: SNB-78 CNS
SW-620 colon = tested on: SW-620 colon
TK-10 renal = tested on: TK-10 renal
U251 CNS = tested on: U251 CNS
UACC-257 melanoma = tested on: UACC-257 melanoma
UACC-62 melanoma = tested on: UACC-62 melanoma
UO-31 renal = tested on: UO-31 renal
XF 498 CNS = tested on: XF 498 CNS

CN1N=CSC12C(=O)N(c1ccccc1)C(=O)N2c1ccccc1 (stereo not given)
TGI (786-0 renal): > 100 µM | TGI (A498 renal): > 100 µM | TGI (A549 NSCLC): > 100 µM | TGI (ACHN renal): > 100 µM | TGI (CAKI-1 renal): > 100 µM | TGI (CCRF-CEM leukemia): > 100 µM | TGI (COLO 205 colon): > 100 µM | TGI (DLD-1 colon): > 100 µM | TGI (DMS 114 small cell lung): > 100 µM | TGI (DMS 273 small cell lung): > 100 µM | TGI (EKVX NSCLC): > 100 µM | TGI (HCC-2998 colon): > 100 µM | TGI (HCT-116 colon): > 100 µM | TGI (HCT-15 colon): > 100 µM | TGI (HL-60(TB) leukemia): > 100 µM | TGI (HOP-18 NSCLC): 9.62 µM | TGI (HOP-62 NSCLC): > 100 µM | TGI (HT29 colon): > 100 µM | TGI (IGROV1 ovarian): > 100 µM | TGI (K-562 leukemia): > 100 µM | TGI (KM12 colon): > 100 µM | TGI (KM20L2 colon): > 100 µM | TGI (LOX IMVI melanoma): > 100 µM | TGI (LXFL 529 NSCLC): > 100 µM | TGI (M14 melanoma): > 100 µM | TGI (M19-MEL melanoma): > 100 µM | TGI (MALME-3M melanoma): > 100 µM | TGI (MOLT-4 leukemia): > 100 µM | TGI (NCI-H23 lung): > 100 µM | TGI (NCI-H460 lung): > 100 µM | TGI (OVCAR-3 ovarian): > 100 µM | TGI (OVCAR-4 ovarian): > 100 µM | TGI (OVCAR-5 ovarian): > 100 µM | TGI (OVCAR-8 ovarian): > 100 µM | TGI (RPMI-8226 leukemia): > 100 µM | TGI (RXF 393 renal): > 100 µM | TGI (RXF-631 renal): > 100 µM | TGI (SF-268 CNS): > 100 µM | TGI (SF-295 CNS): > 100 µM | TGI (SF-539 CNS): > 100 µM | TGI (SK-MEL-2 melanoma): > 100 µM | TGI (SK-MEL-28 melanoma): > 100 µM | TGI (SK-MEL-5 melanoma): > 100 µM | TGI (SK-OV-3 ovarian): > 100 µM | TGI (SN12C renal): > 100 µM | TGI (SNB-19 CNS): > 100 µM | TGI (SNB-75 CNS): > 100 µM | TGI (SNB-78 CNS): > 100 µM | TGI (SW-620 colon): > 100 µM | TGI (TK-10 renal): > 100 µM | TGI (U251 CNS): > 100 µM | TGI (UACC-257 melanoma): > 100 µM | TGI (UACC-62 melanoma): > 100 µM | TGI (UO-31 renal): > 100 µM | TGI (XF 498 CNS): > 100 µM
